Measurements published in ChEMBL document CHEMBL1201862, “PubChem BioAssay data set” (2004).
Active and inactive are the calls of the source.

How the values were obtained:
[1] = target: T1, Tyrosine-protein phosphatase non-receptor type 7 (Homo sapiens, UniProt P35236); type: functional
T1 sequence (P35236 whole entry): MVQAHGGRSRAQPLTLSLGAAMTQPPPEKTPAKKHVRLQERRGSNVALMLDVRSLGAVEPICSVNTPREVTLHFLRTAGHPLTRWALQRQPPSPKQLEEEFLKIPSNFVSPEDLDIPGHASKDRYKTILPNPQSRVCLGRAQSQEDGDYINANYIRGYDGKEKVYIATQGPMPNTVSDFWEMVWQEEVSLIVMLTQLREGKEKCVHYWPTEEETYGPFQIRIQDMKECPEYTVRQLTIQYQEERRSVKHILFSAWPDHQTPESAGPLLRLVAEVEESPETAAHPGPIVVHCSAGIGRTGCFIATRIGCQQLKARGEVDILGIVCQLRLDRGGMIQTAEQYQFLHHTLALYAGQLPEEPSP

[2] = target: T2, Tyrosine-protein phosphatase non-receptor type 22 (Homo sapiens, UniProt Q9Y2R2); type: functional
T2 sequence (Q9Y2R2 whole entry): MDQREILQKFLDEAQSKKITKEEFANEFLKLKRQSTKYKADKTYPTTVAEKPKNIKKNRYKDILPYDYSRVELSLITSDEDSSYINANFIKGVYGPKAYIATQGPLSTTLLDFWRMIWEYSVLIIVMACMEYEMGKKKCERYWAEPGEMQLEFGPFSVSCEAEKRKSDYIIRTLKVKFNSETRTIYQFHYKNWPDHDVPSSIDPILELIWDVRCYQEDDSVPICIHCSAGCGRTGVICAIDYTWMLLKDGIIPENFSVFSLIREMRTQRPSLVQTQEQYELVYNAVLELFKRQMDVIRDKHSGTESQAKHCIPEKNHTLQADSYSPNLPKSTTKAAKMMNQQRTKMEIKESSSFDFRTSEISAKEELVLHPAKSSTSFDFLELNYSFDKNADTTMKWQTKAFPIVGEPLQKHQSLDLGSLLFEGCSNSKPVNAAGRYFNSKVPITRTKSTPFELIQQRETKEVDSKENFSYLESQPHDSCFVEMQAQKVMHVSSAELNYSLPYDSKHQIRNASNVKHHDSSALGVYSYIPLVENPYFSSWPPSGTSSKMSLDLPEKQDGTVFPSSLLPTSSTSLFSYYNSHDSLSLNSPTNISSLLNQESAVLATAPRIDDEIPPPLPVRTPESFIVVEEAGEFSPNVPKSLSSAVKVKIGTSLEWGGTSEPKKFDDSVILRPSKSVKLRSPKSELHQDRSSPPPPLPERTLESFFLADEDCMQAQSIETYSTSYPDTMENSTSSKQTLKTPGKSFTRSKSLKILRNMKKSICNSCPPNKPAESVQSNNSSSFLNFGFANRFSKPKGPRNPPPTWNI

[3] = target: T2, Tyrosine-protein phosphatase non-receptor type 22; type: functional; remark: listed apart in the source
[4] = target: Eukaryotic translation initiation factor 4E (Mus musculus, UniProt P63073); test: blockers of eIF4G binding by eIF4E – biochemical, TR-FRET, dose response (AID 855); type: functional;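 further: potency for disrupting eIF4E binding to eIF4GI seen as loss of FRET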
Eukaryotic translation initiation factor 4E, sequence (P63073 whole entry): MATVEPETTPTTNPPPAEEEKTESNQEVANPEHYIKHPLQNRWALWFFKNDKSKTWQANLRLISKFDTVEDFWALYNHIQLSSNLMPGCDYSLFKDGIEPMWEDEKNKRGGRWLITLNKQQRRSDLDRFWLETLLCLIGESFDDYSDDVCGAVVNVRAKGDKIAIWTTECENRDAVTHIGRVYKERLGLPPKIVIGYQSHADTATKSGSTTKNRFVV

[5] = target: T3, Calpain-2 catalytic subunit (Sus scrofa, UniProt P43367); test: m-calpain protease blockers, concentration series – biochemical, fluorogenic peptide substrate, dose response (AID 1420); type: functional
T3 sequence (P43367 whole entry): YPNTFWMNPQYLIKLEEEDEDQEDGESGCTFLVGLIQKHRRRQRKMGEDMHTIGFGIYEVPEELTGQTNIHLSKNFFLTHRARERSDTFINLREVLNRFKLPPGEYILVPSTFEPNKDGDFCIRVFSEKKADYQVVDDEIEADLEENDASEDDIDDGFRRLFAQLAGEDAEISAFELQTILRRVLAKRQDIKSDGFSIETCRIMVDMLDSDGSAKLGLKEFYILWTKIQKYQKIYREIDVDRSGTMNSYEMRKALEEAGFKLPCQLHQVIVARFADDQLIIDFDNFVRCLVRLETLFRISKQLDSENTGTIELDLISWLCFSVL

[6] = target: Voltage-dependent T-type calcium channel subunit alpha-1H (Homo sapiens, UniProt O95180); type: functional;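 further: channel activity triggered by adding a high calcium stimulation buffer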
Voltage-dependent T-type calcium channel subunit alpha-1H, sequence (O95180 whole entry): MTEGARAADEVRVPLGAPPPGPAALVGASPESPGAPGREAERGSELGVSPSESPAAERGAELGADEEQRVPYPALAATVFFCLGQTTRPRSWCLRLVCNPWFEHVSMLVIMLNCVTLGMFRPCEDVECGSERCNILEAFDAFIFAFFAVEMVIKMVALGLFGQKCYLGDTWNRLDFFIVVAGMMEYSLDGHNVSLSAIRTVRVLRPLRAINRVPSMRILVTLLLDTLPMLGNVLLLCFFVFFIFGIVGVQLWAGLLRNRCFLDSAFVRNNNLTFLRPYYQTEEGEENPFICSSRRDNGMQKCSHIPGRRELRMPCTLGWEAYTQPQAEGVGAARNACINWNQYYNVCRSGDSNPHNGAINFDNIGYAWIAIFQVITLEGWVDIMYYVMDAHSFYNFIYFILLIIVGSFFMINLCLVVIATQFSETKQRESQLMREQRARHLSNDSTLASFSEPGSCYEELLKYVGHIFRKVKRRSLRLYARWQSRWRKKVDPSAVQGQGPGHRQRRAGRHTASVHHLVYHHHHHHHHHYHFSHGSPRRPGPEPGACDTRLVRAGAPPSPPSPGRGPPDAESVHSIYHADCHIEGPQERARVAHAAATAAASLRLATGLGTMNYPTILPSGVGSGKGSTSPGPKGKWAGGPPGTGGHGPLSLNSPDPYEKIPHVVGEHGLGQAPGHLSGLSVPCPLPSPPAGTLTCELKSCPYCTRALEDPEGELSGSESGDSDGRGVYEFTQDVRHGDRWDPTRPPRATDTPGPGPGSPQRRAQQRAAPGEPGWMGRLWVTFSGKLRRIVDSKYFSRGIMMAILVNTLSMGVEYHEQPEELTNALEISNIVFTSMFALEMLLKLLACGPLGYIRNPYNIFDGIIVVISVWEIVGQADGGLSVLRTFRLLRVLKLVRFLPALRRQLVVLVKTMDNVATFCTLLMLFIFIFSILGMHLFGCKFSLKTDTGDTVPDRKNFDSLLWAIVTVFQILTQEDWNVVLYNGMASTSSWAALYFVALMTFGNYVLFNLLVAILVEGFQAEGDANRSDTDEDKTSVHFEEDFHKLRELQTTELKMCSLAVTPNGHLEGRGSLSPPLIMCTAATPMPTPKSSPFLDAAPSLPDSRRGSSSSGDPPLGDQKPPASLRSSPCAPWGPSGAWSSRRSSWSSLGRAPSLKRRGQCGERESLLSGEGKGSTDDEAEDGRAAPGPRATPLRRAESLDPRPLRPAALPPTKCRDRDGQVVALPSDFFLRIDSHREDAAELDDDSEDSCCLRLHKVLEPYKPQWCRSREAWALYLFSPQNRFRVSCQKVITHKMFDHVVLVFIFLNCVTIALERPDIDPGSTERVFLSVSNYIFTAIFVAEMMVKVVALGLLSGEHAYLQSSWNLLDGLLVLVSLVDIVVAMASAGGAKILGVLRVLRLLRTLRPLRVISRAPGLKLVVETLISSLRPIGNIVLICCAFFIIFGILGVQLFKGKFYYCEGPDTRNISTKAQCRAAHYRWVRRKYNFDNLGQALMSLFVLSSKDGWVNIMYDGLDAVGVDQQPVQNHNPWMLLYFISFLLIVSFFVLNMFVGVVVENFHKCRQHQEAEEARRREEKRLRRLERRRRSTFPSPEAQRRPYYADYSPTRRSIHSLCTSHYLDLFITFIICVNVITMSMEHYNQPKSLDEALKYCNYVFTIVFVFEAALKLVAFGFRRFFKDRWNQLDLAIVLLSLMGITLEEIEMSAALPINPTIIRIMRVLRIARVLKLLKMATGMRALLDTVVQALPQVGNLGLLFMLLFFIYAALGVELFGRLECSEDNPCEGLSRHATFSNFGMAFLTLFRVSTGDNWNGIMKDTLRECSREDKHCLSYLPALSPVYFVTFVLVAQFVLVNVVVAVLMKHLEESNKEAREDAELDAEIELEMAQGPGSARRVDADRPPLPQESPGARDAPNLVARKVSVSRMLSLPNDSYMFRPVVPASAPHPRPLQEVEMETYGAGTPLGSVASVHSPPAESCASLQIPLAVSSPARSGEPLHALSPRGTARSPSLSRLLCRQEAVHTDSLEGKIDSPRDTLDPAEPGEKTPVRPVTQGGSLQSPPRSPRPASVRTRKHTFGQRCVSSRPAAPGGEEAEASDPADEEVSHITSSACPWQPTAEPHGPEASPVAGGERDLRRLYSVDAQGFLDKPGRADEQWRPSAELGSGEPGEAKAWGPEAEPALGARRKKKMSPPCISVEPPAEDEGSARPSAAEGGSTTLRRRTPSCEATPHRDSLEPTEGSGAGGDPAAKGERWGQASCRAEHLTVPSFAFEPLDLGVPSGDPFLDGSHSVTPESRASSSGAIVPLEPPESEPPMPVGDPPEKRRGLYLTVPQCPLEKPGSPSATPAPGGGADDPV

[7] = Vero E6 cell cytotoxicity, dose response, cytotoxicity control for non-replicating M. tuberculosis project, secondary assay (AID 492998); type: functional, VeroE6; conditions: Vero C1008
HEK293 [8] = test: inhibition of NOD1-driven NF-kB reporter – cell-based, luminescence, uHTS, primary screen (AID 1578); type: functional; conditions: Homo sapiens
cells = type: functional
[9] = HepG2 cell cytotoxicity, dose response, cytotoxicity control for non-replicating M. tuberculosis project (AID 489018); type: functional; conditions: Mycobacterium tuberculosis
HEK293 [10] = test: NOD2 signaling inhibitors in MDP-stimulated cells, cell-based, uHTS, luminescence (AID 2001); type: functional; conditions: Homo sapiens
[11] = luciferase reporter signal suppression in cells – H4 neuroglioma cells, luminescence, dose response (AID 1990); type: functional, cell-based
[12] = Luminescence Cell-Based Dose Response HTS to Identify Inhibitors of 5'UTR Stem-Loop Driven Prion Protein mRNA Translation in H4 Neuroglioblastoma Cells. [Related pubchem assays: 1827 (Project Summary), 1813 (Primary HTS)]; type: functional
HEK293 [13] = test: cells; type: functional, cell-based; conditions: Homo sapiens
HEK293 [14] = test: cells; type: functional, cell-based; conditions: Homo sapiens; remark: listed apart in the source
[15] = alpha-synuclein stem-loop luciferase translation blockers – H4 neuroglioma cells, luminescence, confirmation (AID 1988); type: functional, cell-based
[16] = THP-1 cell cytotoxicity, dose response, cytotoxicity control for non-replicating M. tuberculosis project (AID 489025); type: functional
INS1 = test: INS-1E survival protection against cytokine death – cell-based, luminescence, retest, dose response (AID 449756); type: functional; conditions: Rattus norvegicus;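 further: cell death triggered by IL-1 beta plus TNF-alpha plus IFN-gamma mixture; protective hits raise ATP signal compared with cytokine alone wells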

O=C(Cc1cccs1)N1CCN(c2ccc([N+](=O)[O-])cc2)CC1
IC50 [1]: > 79.4 µM (inactive)
IC50 [2]: > 79.4 µM (inactive)
IC50 [3]: > 79.4 µM (inactive)

CC(C)CCNC(=O)c1ccc2c(Cl)c3c(nc2c1)CCC3
IC50 [1]: > 79.4 µM (inactive)
IC50 [2]: > 79.4 µM (inactive)
IC50 [3]: > 79.4 µM (inactive)

Fc1c(F)c(C(F)(F)F)c(F)c(F)c1N1CCN(c2ccc3nnc(C(F)(F)F)n3n2)CC1
IC50 [4]: > 64 µM (inactive)
IC50 [5]: 3.07 µM (not active)

CCCCCCCCCC(=O)N/N=C/c1ccc(C)s1
IC50 [4]: > 64 µM (inactive)

O=C(Nc1nc(-c2cccs2)cs1)c1cccc(S(=O)(=O)N2CCCCC2)c1
EC50 [6]: 4.13 µM (active)

COc1ccccc1N1CCN(C(=O)C2CCN(C(=O)c3ccccc3Cl)CC2)CC1
IC50 [1]: > 79.4 µM (inactive)
IC50 [2]: > 79.4 µM (inactive)
IC50 [3]: > 79.4 µM (inactive)

O=C(N/N=C/c1cc(Br)c(Br)s1)c1ccncc1
CC50 [7]: 7.99 µM (active)
EC50 (HEK293 [8]): > 20 µM (inactive)
IC50 (cells): 2.64 µM (active)
CC50 [9]: 16.7 µM (active)
IC50 (HEK293 [10]): 17.9 µM (inactive)
EC50 [11]: > 120 µM (not active)
EC50 [12]: 16.8 µM (active)
IC50 (HEK293 [13]): > 20 µM (inactive)
IC50 (HEK293 [14]): 2.13 µM (active)
EC50 [15]: 9.58 µM (active)
CC50 [16]: 6.79 µM (active)
AC50 (INS1): 3.31 µM (active)
